Ki data for 9 compounds are collected here from patent publication US8999940B2 (Ipsen Pharma S.A.S., priority 2008, dated 2015).

Read-outs that look alike come from different tables or passages of the source. Where a SMILES comes first, the peptide text is derived from it. Where no end group is shown, it is not given here. [ ]: non-standard residue; d: D form. The star is where a group is joined. Tic(7-OH) = O=C(O)[C@@H]1Cc2ccc(O)cc2CN1; Desaminotyrosyl = O=C(CCc1ccc(O)cc1)*; Nle = CCCC[C@H](N)C(=O)O; Ac5c = NC1(C(=O)O)CCCC1; Aib = CC(C)(N)C(=O)O

This experiment concerns the target T1, human recombinant GIP receptor (Homo sapiens, UniProt P48546).
T1 construct: expressed in transfected cells; host or cells: CHO-K1 clonal cells (membrane preparation)
T1 sequence (P48546 22-466): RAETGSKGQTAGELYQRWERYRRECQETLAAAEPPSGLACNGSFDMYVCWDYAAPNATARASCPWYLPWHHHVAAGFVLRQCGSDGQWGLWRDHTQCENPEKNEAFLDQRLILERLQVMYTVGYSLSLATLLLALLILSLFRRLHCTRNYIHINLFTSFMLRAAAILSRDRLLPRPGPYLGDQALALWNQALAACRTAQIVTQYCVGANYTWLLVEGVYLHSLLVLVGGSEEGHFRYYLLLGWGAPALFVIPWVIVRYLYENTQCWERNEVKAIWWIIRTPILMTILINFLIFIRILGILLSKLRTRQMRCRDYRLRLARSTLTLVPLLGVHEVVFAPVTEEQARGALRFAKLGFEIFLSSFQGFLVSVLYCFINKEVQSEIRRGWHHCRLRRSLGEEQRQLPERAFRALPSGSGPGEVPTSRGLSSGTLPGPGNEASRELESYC
Nature of the experiment: In vitro hGIP receptor binding assay. As to the method:
A. In Vitro hGIP Receptor Binding Assay […] The incubations were terminated by rapid filtration through GF/C filters (pre-soaked in 0.5% polyethylenimine) using a Brandel filtration manifold. Each tube and filter were then washed three times with 5-ml aliquots of ice-cold buffer.

Broadly, the Ki is a measure of affinity in units of concentration, obtained from inhibition or displacement. For the compound `CCCC[C@H](NC(=O)[C@H](C)NC(=O)[C@@H](NC(=O)[C@H](CO)NC(=O)[C@H](Cc1ccc(O)cc1)NC(=O)[C@H](CC(=O)O)NC(=O)[C@H](CO)NC(=O)C1(NC(=O)[C@H](Cc2ccccc2)NC(=O)[C@@H](NC(=O)CNC(=O)[C@H](CCC(=O)O)NC(=O)C(C)(C)NC(=O)CCc2ccc(O)cc2)[C@@H](C)O)CCCC1)[C@@H](C)CC)C(=O)N[C@@H](CC(=O)O)C(=O)N[C@@H](CCCCN)C(=O)N[C@H](C(=O)N[C@@H](Cc1c[nH]cn1)C(=O)N[C@@H](CCC(N)=O)C(=O)N[C@@H](CCC(N)=O)C(=O)N[C@@H](CC(=O)O)C(=O)N[C@@H](Cc1ccccc1)C(=O)N[C@H](C(=O)N[C@@H](CC(N)=O)C(=O)N[C@@H](Cc1c[nH]c2ccccc12)C(=O)N[C@@H](CC(C)C)C(=O)N[C@@H](CC(C)C)C(=O)N[C@@H](C)C(=O)N[C@@H](CCC(N)=O)C(=O)N[C@@H](CCCCN)C(N)=O)C(C)C)[C@@H](C)CC` [Example 1, (4Hppa^1, Aib^2, A5c^7, Nle^14)hGIP(1-30)-NH2] (Desaminotyrosyl-[Aib]EGTF[Ac5c]SDYSIA[Nle]DKIHQQDFVNWLLAQK-NH2), the Ki is 12.6 nM.

For `CCCC[C@H](NC(=O)[C@H](C)NC(=O)[C@@H](NC(=O)C(C)(C)NC(=O)[C@H](Cc1ccc(O)cc1)NC(=O)[C@H](CC(=O)O)NC(=O)[C@H](CO)NC(=O)[C@@H](NC(=O)[C@H](Cc1ccccc1)NC(=O)[C@@H](NC(=O)CNC(=O)[C@H](CCC(=O)O)NC(=O)C(C)(C)NC(=O)CCc1ccc(O)cc1)[C@@H](C)O)[C@@H](C)CC)[C@@H](C)CC)C(=O)N[C@@H](CC(=O)O)C(=O)N[C@@H](CCCCN)C(=O)N[C@H](C(=O)N[C@@H](Cc1c[nH]cn1)C(=O)N[C@@H](CCC(N)=O)C(=O)N[C@@H](CCC(N)=O)C(=O)N[C@@H](CC(=O)O)C(=O)N[C@@H](Cc1ccccc1)C(=O)N[C@H](C(=O)N[C@@H](CC(N)=O)C(=O)N[C@@H](Cc1c[nH]c2ccccc12)C(=O)N[C@@H](CC(C)C)C(=O)N[C@@H](CC(C)C)C(=O)N[C@@H](C)C(=O)N[C@@H](CCC(N)=O)C(=O)N[C@@H](CCCCN)C(N)=O)C(C)C)[C@@H](C)CC` [Example 2, (4Hppa^1, Aib^2,11, Nle^14)hGIP(1-30)-NH2] (Desaminotyrosyl-[Aib]EGTFISDY[Aib]IA[Nle]DKIHQQDFVNWLLAQK-NH2), the Ki came out at 20.3 nM.

With `CC[C@H](C)[C@H](NC(=O)[C@H](CO)NC(=O)[C@H](Cc1ccc(O)cc1)NC(=O)[C@H](CC(=O)O)NC(=O)[C@H](CO)NC(=O)C1(NC(=O)[C@H](Cc2ccccc2)NC(=O)[C@@H](NC(=O)CNC(=O)[C@H](CCC(=O)O)NC(=O)C(C)(C)NC(=O)CCc2ccc(O)cc2)[C@@H](C)O)CCCC1)C(=O)N[C@@H](C)C(=O)N[C@@H](CCSC)C(=O)N[C@@H](CC(=O)O)C(=O)N[C@@H](CCCCN)C(=O)N[C@H](C(=O)N[C@@H](Cc1c[nH]cn1)C(=O)N[C@@H](CCC(N)=O)C(=O)N[C@@H](CCC(N)=O)C(=O)N[C@@H](CC(=O)O)C(=O)N[C@@H](Cc1ccccc1)C(=O)N[C@H](C(=O)N[C@@H](CC(N)=O)C(=O)N[C@@H](Cc1c[nH]c2ccccc12)C(=O)N[C@@H](CC(C)C)C(=O)N[C@@H](CC(C)C)C(=O)N[C@@H](C)C(=O)N[C@@H](CCC(N)=O)C(=O)N[C@@H](CCCCN)C(N)=O)C(C)C)[C@@H](C)CC` [Example 3, (4Hppa^1, Aib^2, A5c^7)hGIP(1-30)-NH2], the Ki was found to be 5 nM.

Take `CC[C@H](C)[C@H](NC(=O)[C@H](CCCCN)NC(=O)[C@H](CC(=O)O)NC(=O)[C@H](CCSC)NC(=O)[C@H](C)NC(=O)[C@@H](NC(=O)C(C)(C)NC(=O)[C@H](Cc1ccc(O)cc1)NC(=O)[C@H](CC(=O)O)NC(=O)[C@H](CO)NC(=O)[C@@H](NC(=O)[C@H](Cc1ccccc1)NC(=O)[C@@H](NC(=O)CNC(=O)[C@H](CCC(=O)O)NC(=O)C(C)(C)NC(=O)CCc1ccc(O)cc1)[C@@H](C)O)[C@@H](C)CC)[C@@H](C)CC)C(=O)N[C@@H](Cc1c[nH]cn1)C(=O)N[C@@H](CCC(N)=O)C(=O)N[C@@H](CCC(N)=O)C(=O)N[C@@H](CC(=O)O)C(=O)N[C@@H](Cc1ccccc1)C(=O)N[C@H](C(=O)N[C@@H](CC(N)=O)C(=O)N[C@@H](Cc1c[nH]c2ccccc12)C(=O)N[C@@H](CC(C)C)C(=O)N[C@@H](CC(C)C)C(=O)N[C@@H](C)C(=O)N[C@@H](CCC(N)=O)C(=O)N[C@@H](CCCCN)C(N)=O)C(C)C` [Example 4, (4Hppa^1, Aib^2,11)hGIP(1-30)-NH2] (Desaminotyrosyl-[Aib]EGTFISDY[Aib]IAMDKIHQQDFVNWLLAQK-NH2): the inhibition constant Ki stood at 15.4 nM.

Consider `CC[C@H](C)[C@H](NC(=O)[C@H](CO)NC(=O)[C@H](Cc1ccc(O)cc1)NC(=O)[C@H](CC(=O)O)NC(=O)[C@H](CO)NC(=O)[C@@H](NC(=O)[C@H](Cc1ccccc1)NC(=O)[C@@H](NC(=O)CNC(=O)[C@H](CCC(=O)O)NC(=O)C(C)(C)NC(=O)CCc1ccc(O)cc1)[C@@H](C)O)[C@@H](C)CC)C(=O)N[C@@H](C)C(=O)N[C@@H](CCSC)C(=O)N[C@@H](CC(=O)O)C(=O)N[C@@H](CCCCN)C(=O)N[C@H](C(=O)N[C@@H](Cc1c[nH]cn1)C(=O)N[C@@H](CCC(N)=O)C(=O)N[C@@H](CCC(N)=O)C(=O)N[C@@H](CC(=O)O)C(=O)N[C@@H](Cc1ccccc1)C(=O)N[C@H](C(=O)N[C@@H](CC(N)=O)C(=O)N[C@@H](Cc1c[nH]c2ccccc12)C(=O)N[C@@H](CC(C)C)C(=O)N[C@@H](CC(C)C)C(=O)N[C@@H](C)C(=O)N[C@@H](CCC(N)=O)C(=O)N[C@@H](CCCCN)C(N)=O)C(C)C)[C@@H](C)CC` [Example 6, (4Hppa^1, Aib^2)hGIP(1-30)-NH2], for which the inhibition constant (Ki) was found to be 1.58 nM.

For the compound `CCCC[C@H](NC(=O)[C@H](C)NC(=O)[C@@H](NC(=O)C1(NC(=O)[C@H](Cc2ccc(O)cc2)NC(=O)[C@H](CC(=O)O)NC(=O)[C@H](CO)NC(=O)[C@@H](NC(=O)[C@H](Cc2ccccc2)NC(=O)[C@@H](NC(=O)CNC(=O)[C@H](CCC(=O)O)NC(=O)C(C)(C)NC(=O)[C@@H](N)Cc2ccc(O)c(Br)c2)[C@@H](C)O)[C@@H](C)CC)CCCC1)[C@@H](C)CC)C(=O)N[C@@H](CC(=O)O)C(=O)N[C@@H](CCCCN)C(=O)N[C@H](C(=O)N[C@@H](Cc1c[nH]cn1)C(=O)N[C@@H](CCC(N)=O)C(=O)N[C@@H](CCC(N)=O)C(=O)N[C@@H](CC(=O)O)C(=O)N[C@@H](Cc1ccccc1)C(=O)N[C@H](C(=O)N[C@@H](CC(N)=O)C(=O)N[C@@H](Cc1c[nH]c2ccccc12)C(=O)N[C@@H](CC(C)C)C(=O)N[C@@H](CC(C)C)C(=O)N[C@@H](C)C(=O)N[C@@H](CCC(N)=O)C(=O)N[C@@H](CCCCN)C(=O)NCC(=O)N[C@@H](CCCCN)C(=O)N[C@@H](CCCCN)C(=O)N[C@@H](CC(N)=O)C(=O)N[C@@H](CC(=O)O)C(=O)N[C@@H](Cc1c[nH]c2ccccc12)C(=O)N[C@@H](CCCCN)C(=O)N[C@@H](Cc1c[nH]cn1)C(=O)N[C@@H](CC(N)=O)C(=O)N[C@H](C(=O)N[C@H](C(=O)N[C@@H](CCC(N)=O)C(=O)N[C@@H](Cc1c[nH]cn1)C(=O)O)[C@@H](C)O)[C@@H](C)CC)C(C)C)[C@@H](C)CC` [Example 71, (3Br-Tyr^1, Aib^2, A5c^11, Nle^14, His^43)hGIP(1-43)-OH], the Ki came out at 1.09 nM.

Take `CC[C@H](C)[C@H](NC(=O)[C@H](CCCCN)NC(=O)[C@H](CC(=O)O)NC(=O)C1(NC(=O)[C@H](C)NC(=O)[C@@H](NC(=O)C2(NC(=O)[C@H](Cc3ccc(O)cc3)NC(=O)[C@H](CC(=O)O)NC(=O)[C@H](CO)NC(=O)[C@@H](NC(=O)[C@H](Cc3ccccc3)NC(=O)[C@@H](NC(=O)CNC(=O)[C@H](CCC(=O)O)NC(=O)C(C)(C)NC(=O)[C@@H](N)Cc3ccc(O)c(Br)c3)[C@@H](C)O)[C@@H](C)CC)CCCC2)[C@@H](C)CC)CCCC1)C(=O)N[C@@H](Cc1c[nH]cn1)C(=O)N[C@@H](CCC(N)=O)C(=O)N[C@@H](CCC(N)=O)C(=O)N[C@@H](CC(=O)O)C(=O)N[C@@H](Cc1ccccc1)C(=O)N[C@H](C(=O)N[C@@H](CC(N)=O)C(=O)N[C@@H](Cc1c[nH]c2ccccc12)C(=O)N[C@@H](CC(C)C)C(=O)N[C@@H](CC(C)C)C(=O)N[C@@H](C)C(=O)N[C@@H](CCC(N)=O)C(=O)N[C@@H](CCCCN)C(=O)NCC(=O)N[C@@H](CCCCN)C(=O)N[C@@H](CCCCN)C(=O)N[C@@H](CC(N)=O)C(=O)N[C@@H](CC(=O)O)C(=O)N[C@@H](Cc1c[nH]c2ccccc12)C(=O)N[C@@H](CCCCN)C(=O)N[C@@H](Cc1c[nH]cn1)C(=O)N[C@@H](CC(N)=O)C(=O)N[C@H](C(=O)N[C@H](C(=O)N[C@@H](CCC(N)=O)C(=O)N[C@@H](Cc1c[nH]cn1)C(=O)O)[C@@H](C)O)[C@@H](C)CC)C(C)C` [Example 72, (3Br-Tyr^1, Aib^2, A5c^11, 14, His^43)hGIP(1-43)-OH]: the inhibitory constant (Ki) was 0.92 nM.

Turning to “[3Cl-Tyr^1, Aib^2, A5c^11, Cys^43(succinimide-N—(CH2)2—C(O)NH—(CH2)3—O—CH2—CH(20K PEG)-CH2-20K PEG)]hGIP(1-43)-NH2 [Example 102]”, where the note is “membranes of CHO-K1 cells expressing the human recombinant GIP receptor, 0.05 nM [125I]GIP, 100 minutes at 25° C., read-out: Ki”, the Ki came to 42.4 nM.

Turning to “[Tic(7-OH)][Aib]EGTFISDY[Ac5c]IAMDKIHQQDFVNWLLAQKGKKNDWKHNITQH-OH [Example 77, (7HO-Tic^1, Aib^2, A5c^11, His^43)hGIP(1-43)-OH]”, the Ki stood at 4.82 nM.
